Test results: publication PMC6497555 (Molecular cancer therapeutics, 2019)

Test system: HeyA8 tumor model
Assay: HeyA8 intraperitoneal ovarian cancer mouse model
Assay type: in vivo
Settings: all four groups compared; EP-100 0.2 mg/kg, olaparib 50 mg/kg

## O=C(c1cc(Cc2n[nH]c(=O)c3ccccc23)ccc1F)N1CCN(C(=O)C2CC2)CC1 [olaparib]
  Body weights of the host mice at the end of the experiment: did not differ significantly
